Structures are written as SMILES.

This series is described as follows: Human HepG2 cell viability assay in 384 well format. Type of series: toxicity, cell-based. Also on record: dose 125 nL, time 70.5 hour; cytotoxicity at 70.5 h: concentration not given beside the values. The note with it: HepG2 cells, read-out: Inhibition.
As to `CCN(CC)S(=O)(=O)N1C[C@@H](c2ccccc2)[C@H]2[C@H]1CCCCCN2C`, the cytotoxicity at 70.5 h is -1.32%.

Regarding `CN1CCC(Oc2ccc(-n3ccnc3-c3nccn3C)cc2)CC1`, the cytotoxicity at 70.5 h was -8.7%.

Consider `Cc1ccc(C(=O)NCC(c2cnn(C)c2)N(C)C)c(O)c1` (centres undefined), for which the cytotoxicity at 70.5 h is 25.6%.

As for `Cc1oc(-c2ccco2)nc1CNC1CCCN(c2cccnn2)C1` (centres undefined), the cytotoxicity at 70.5 h was -9.89%.

Consider `Cc1cc(N2CCC(Cc3cccnc3)CC2)ncn1`, for which the cytotoxicity at 70.5 h was 23.3%.

For the compound `O=C(CCC(=O)Nc1nnc(C(F)(F)F)s1)NCC1CCCO1` (centres undefined), the cytotoxicity at 70.5 h is -0.323%.

As to `c1ccc(-c2noc(CN3CCc4cncnc4C3)n2)nc1`, the cytotoxicity at 70.5 h was -9.29%.

Take `Cc1cc(CN2CCC3(CC2)CC(C(=O)O)N(C(=O)C2CC2)C3)oc1C` (centres undefined): the cytotoxicity at 70.5 h is -13.7%.

As to `CO[C@@H]1CN(c2ccccc2)S(=O)(=O)[C@@]12CCN(C(C)=O)C2`, the cytotoxicity at 70.5 h was -10.5%.

Regarding `Cc1ncsc1CN1C[C@@H]2CCCO[C@@H]2[C@H](N(C)C(C)C)C1`, the cytotoxicity at 70.5 h is -4.74%.

As for `CCc1ocnc1C(=O)N1CCCC(n2nc(C)nc2C)C1` (centres undefined), the cytotoxicity at 70.5 h was 5.06%.

For `CCc1nccn1CCC(=O)N1CCN(c2ccccc2C)CC1C` (centres undefined), the cytotoxicity at 70.5 h is -10.2%.

In the case of `Cc1nc(CN2CCCC(N(C)Cc3nc(C)c(C)o3)C2)no1` (centres undefined), the cytotoxicity at 70.5 h is -2.87%.

With `CC(O)c1cn(Cc2ccc(F)cc2)nn1` (centres undefined), the cytotoxicity at 70.5 h was -4.74%.

Turning to `CCCSCC(=O)NS(=O)(=O)c1ccc2c(c1)OCCO2`, the cytotoxicity at 70.5 h worked out at 2.12%.

For the compound `CCCC(CNc1cc(C(C)C)nc2ccnn12)N(C)C` (centres undefined), the cytotoxicity at 70.5 h was 39.1%.

As to `C=C(C)CN(CC)C(=O)Nc1ccccc1CN(C)C(C)=O`, the cytotoxicity at 70.5 h was -12.6%.

For the compound `Cn1ccnc1CN1CCCCC1c1nc(-c2ccccc2)no1` (centres undefined), the cytotoxicity at 70.5 h was -10.6%.

As for `CCC(CC)c1cc(CNC(=O)N2CCCC(C(=O)NC)C2)on1` (centres undefined), the cytotoxicity at 70.5 h is -0.471%.

Take `CO[C@H]1CCN(C(=O)c2ccsc2)[C@@H]2CN(CC3CC3)C[C@H]12`: the cytotoxicity at 70.5 h was -7.14%.

Take `O=C(c1ccncc1F)N1CCCC1c1nc(-c2ccccc2)n[nH]1` (centres undefined): the cytotoxicity at 70.5 h is -3.44%.

As for `CCN(Cc1ccc2c(c1)OCO2)C(=O)c1ccc(=O)n(C)c1`, the cytotoxicity at 70.5 h is -0.838%.

Consider `CSCCC(=O)N1CCCC(c2nccn2Cc2ccncc2)C1` (centres undefined), for which the cytotoxicity at 70.5 h was -5.49%.

On to `O=C1CCC2(CCCN(CCc3ccccc3)C2)N1Cc1cccnc1` (centres undefined), for which the cytotoxicity at 70.5 h was -25%.

Consider `CCc1nc(CN2CCCC(NCc3ccc(C(N)=O)cc3)C2)no1` (centres undefined), for which the cytotoxicity at 70.5 h is -10.1%.

Turning to `CC(=O)N(C)C1CCN(c2ncc3c(n2)CCN3c2ccccc2)C1` (centres undefined), the cytotoxicity at 70.5 h is -3.48%.

`Cc1noc(C(C)C)c1C(=O)NCc1cccc(CN(C)C)c1`: the cytotoxicity at 70.5 h was -1.69%.

Regarding `COCC1c2nnn(CC3CC3)c2CCN1C(=O)c1ccnnc1` (centres undefined), the cytotoxicity at 70.5 h is -6.63%.

Regarding `COc1ccc(C(=O)NCC(c2cccn2C)N2CCCC2)c(OC)c1` (centres undefined), the cytotoxicity at 70.5 h turned out to be 14.2%.

Turning to `O=S(=O)(C1CC1)N1CCC2(CCCN(Cc3ccccn3)C2)C1` (centres undefined), the cytotoxicity at 70.5 h was -0.34%.

Take `Clc1ccc(-c2ccc(C3CNCCO3)nc2)cc1` (centres undefined): the cytotoxicity at 70.5 h was -0.52%.

With `O=C(Cc1ccccc1Br)NCC(=O)Nc1cn[nH]c1`, the cytotoxicity at 70.5 h was -6.36%.

`CCN1CCCC1Cn1ccc2c(OC)c(OC)ccc2c1=O` (centres undefined): the cytotoxicity at 70.5 h is -6.22%.

Consider `COCCN1CCC2(CC1)CC(N1CCOCC1)c1ccc(C)cc12` (centres undefined), for which the cytotoxicity at 70.5 h is -8.53%.

Take `O=C(Nc1cc(N2CCOCC2)ncn1)c1cnccn1`: the cytotoxicity at 70.5 h is -3.66%.

`COc1ccc([C@@H]2CN(c3cc(OC)ncn3)C[C@H]2N(C)C)cc1`: the cytotoxicity at 70.5 h was determined as 22.1%.

As to `COCCCNC(=O)Nc1ccc(OCc2noc(C3CC3)n2)cc1`, the cytotoxicity at 70.5 h is -11.8%.

For `CCOC(=O)N1CC2(CCNCC2)c2cc(Cl)ccc21`, the cytotoxicity at 70.5 h was -11.6%.

Regarding `O=C1CC(NCc2cnc(C3CCCCC3)nc2)CN1c1ccccc1` (centres undefined), the cytotoxicity at 70.5 h was found to be 13.8%.

These data come from ChEMBL document CHEMBL3507680, “University of Dundee, Gates Library screen for HepG2 cell viability”.
